Results: US12544421B2, “VDAC inhibitors for treating inflammatory bowel diseases” (THE NATIONAL INSTITUTE FOR BIOTECHNOLOGY IN THE NEGEV LTD., priority 2018, dated 2026)

How the values were obtained:
DSS-induced IBD mice [1] = assay: Dextran sodium sulfate (DSS)-induced colitis / IBD mouse model: weight, survival, colon and cecum length, clinical score, spleen weight; type: in vivo, C57BL/6 mice
CT-26 cells and MEFs = assay: H2O2-induced mtDNA release from cells in culture; type: cell-based, mouse; settings: 20 μM compound, 100 or 200 μM H2O2, 20 h, CT-26 and MEFs
Experimental: Murine colorectal carcinoma cell line from a BALB/c mouse (CT26) and mouse embryonic fibroblast (MEF) cell lines were grown at 37° C. under an atmosphere of 95% air and 5% CO2 in DMEM supplemented with 10% FBS, 2 mM L-glutamine, 1,000 U/ml penicillin and 1 mg/ml streptomycin.
Cells were seeded (150,000 cells/well) in 6-well culture dishes to 40-60% confluence. After 24 h cells were incubated for 20 h with 100 or 200 μM of H2O2 in the absence or the presence of VBIT-4 and VBIT-12. Cells washed and subjected to mtDNA release as described below. For VDAC1 silencing, CT-26 cells were seeded (150,000 cells/well) in 6-well culture dishes to 40-60% confluence. After 24 h cells were transfected with 75 nM of non-targeting siRNA (si-NT) or siRNA targeting VDAC1 recognizing both human and mouse VDAC1 (si-m/hVDAC1) using the JetPRIME transfection reagent, according to the manufacturers' instructions. Forty-eight (48) h post-transfection with either si-NT or si-m/hVDAC1, cells were incubated for 20 h with 100 μM of H2O2. Cells washed and subject to mtDNA release as described below.
Cells (e.g., CT-26, MFFs) were re-suspended in 170 μl digitonin buffer containing 150 mM NaCl, 50 mM HEPES pH 7.4, and 25 μg/ml digitonin (EMD Millipore Corp). The homogenates are incubated on a rotator for 10 min at room temperature, followed by centrifugation at 16,000 g for 25 min at 4° C. […]

[2] = system: colon of DSS-induced IBD mice; assay: Histological sections of colon of DSS-induced IBD mice (H&E, anti-VDAC1 immunostaining); type: in vivo, C57BL/6 mice
Excerpt: FIGS. 6A-6D are micrographs of histological sections of DSS-induced IBD in C57BL/6 mice, stained with hematoxylin and eosin (H&E). Scale bar represents 100 μm. (6A) Control; (6B) 2.5% DSS; (6C) DSS+VBIT-4; and (6D) DSS+VBIT-12.
FIGS. 7A-7D are micrographs of histological sections of DSS-induced IBD in C57BL/6 mice highlighting the effects of VBIT-4 and VIBT-12 on the colon wall thickness and lymphatic infiltration thereto. (7A) Control; (7B) 2.5% DSS; (7C) DSS+VBIT-12; and […] DSS+VBIT-4.
FIGS. 8A-8D are micrographs of histological sections of DSS-induced IBD in C57BL/6 mice, immunostained with an anti VDAC-1 specific antibody. (8A) Control; (8B) 2.5% DSS; (8C) 2.5% DSS+VBIT-4; and (8D) 2.5% DSS+VBIT-12.
IBD colons were also found to contain large lymphatic sacks and also experienced high infiltration of inflammatory cells towards the colonic lumen.

DSS-induced IBD mice [3] = assay: Dextran sodium sulfate (DSS)-induced colitis / IBD mouse model: weight, survival, colon and cecum length, clinical score, spleen weight; type: in vivo, C57BL/6 mice; remark: listed apart in the source
Excerpt: Healthy female, specific pathogen free (SPF) C57BL/6 (H-2b), 6-7 weeks old mice were obtained from Invigo, Israel. Animal housing and care conditions was maintained according to the experimental protocols approved by the Institutional Animal Care and Use Committee. Mice were weighed and examined for health.
Animals were provided ad libitum a commercial rodent diet, and free access to either regular or DSS-containing drinking water for the respective designated test groups, supplied to each cage via polyethylene bottles with stainless steel sipper tubes.
Dextran sodium sulfate (DSS)-induced colitis was used.
All animals were subjected to experimental Colitis induction by providing DSS in the drinking water, continuously supplied ad libitum for 6 days, followed subsequently by 8 days of regular drinking water until study termination on day 14 (FIG. 1A).
Determination of individual body weights of mice was performed before disease induction and thereafter once daily, starting from study day 0 until the time of scheduled euthanasia of survivors on Day 14.
Animals were observed, and clinical signs recorded once daily starting from study day 1 and onwards until the time of scheduled euthanasia. Evaluation of clinical signs was scored according to the grading system listed below.
Immediately after euthanasia, the entire large intestine from the ileo-caecal junction to the anus were removed, weighed and the length of the colon was measured using a ruler.
The Maximal Scores of all mice in each group was be summed, and the MMS calculation was as follows: […]
The mean colon length of each group was calculated, and the percentage of shortening of the colon was calculated as follows: […]
The mean caecum length of each group was calculated, and the percentage of shortening of caecum was calculated as follows: […]

[4] = DSS-induced IBD mice, 20 mg/kg, n=6
[5] = DSS-induced IBD mice, 20 mg/kg, value before the brackets
[6] = DSS-induced IBD mice, 20 mg/kg, value in brackets

O=C(CC(CO)N1CCN(c2ccc(OC(F)(F)F)cc2)CC1)Nc1ccc(Cl)cc1 (centres unmarked) [VBIT-4, N-(4-chlorophenyl)-4-hydroxy-3-(4-(4-(trifluoromethoxy)phenyl)-piperazin-1-yl)butanamide]
Change (%) of weight, day 8 to day 15 (DSS-induced IBD mice [1]; 20 mg/kg, value in brackets): 13.9%
Weight (gr) day 15 (DSS-induced IBD mice [1]; compound 20 mg/kg, day 15): 13.9 gr
Release of mtDNA from cells induced by H2O2 (CT-26 cells and MEFs): inhibited
Colon histology: inflammatory cells and infiltration ([2]; compared to IBD mice): fewer inflammatory cells with reduced/no infiltration activity
Colon histology: colon wall thickness / villi ([2]; compared to IBD mice and non-IBD control): thinner colon walls
% Mortality (DSS-induced IBD mice [3]; 2.5% DSS, 20 mg/kg, n=6): 33.3%
died (number of mice) (DSS-induced IBD mice [3]; 2.5% DSS, 20 mg/kg, n=6): 2
Body weight at experiment termination versus DSS-induced IBD mice (in words) (DSS-induced IBD mice [3]; DSS-induced IBD mice): higher weights
Survival rate at experiment termination versus DSS-induced IBD mice (in words) (DSS-induced IBD mice [3]; DSS-induced IBD mice): increased survival rates
Cecum length, mm (DSS-induced IBD mice [3]; [4]): 8.7 ± 2.4 mm
MMS (mean maximal score; stool consistency and rectal bleeding, 0-5) (DSS-induced IBD mice [3]; [4]): 3.05 ± 0.55
Colon length, mm (DSS-induced IBD mice [3]; DSS-induced IBD mice, 20 mg/kg, n=6, at termination): 48.00 ± 4.84 mm
Change of weight, day 1 to day 8 (absolute) (DSS-induced IBD mice [3]; [5]): −3.2 gr
Change of weight, day 8 to day 15 (absolute) (DSS-induced IBD mice [3]; [5]): 1.7 gr
Change (%) of weight, day 1 to day 8 (DSS-induced IBD mice [3]; [6]): −20.8%
Colon, % Shortening relative to the DSS-induced control (=100) (DSS-induced IBD mice [3]; [6]): 73%
Cecum, % Shortening (DSS-induced IBD mice [3]; DSS-induced IBD mice, 20 mg/kg, versus naive): 33.1%
Colon, % Shortening (DSS-induced IBD mice [3]; DSS-induced IBD mice, 20 mg/kg, versus naive, value before the brackets): 26.2%
Weight (gr) day 1 (DSS-induced IBD mice [3]; DSS-induced IBD mice, compound 20 mg/kg, day 1): 15.4 gr
Weight (gr) day 8 (DSS-induced IBD mice [3]; DSS-induced IBD mice, compound 20 mg/kg, day 8): 12.2 gr
